{"source": "patent US20240050950A1", "about": "“GRADIENT-BASED MICROFLUIDIC CIRCUIT, DEVICE, AND METHOD FOR PERFORMING AN ASSAY” (priority 2020, published 2024)", "key": {"[1]": {"test_system": "yrKHK S. cerevisiae yeast strain (DBY12549)", "assay_type": "cell-based, Saccharomyces cerevisiae", "conditions": "MVM2 platform", "protocol": "Yeast culture medium, strains, and growth. Yeast cell growth and standard laboratory manipulations were performed as described (Guthrie and Fink, “Guide to Yeast Genetics and Molecular and Cellular Biology,” Methods in Enzymol. Part C 351 Gulf Professional Publishing (2002), which is hereby incorporated by reference in its entirety). All media used was either minimal medium (YNB; 0.67% yeast nitrogen base without amino acids plus 2% indicated carbon sources) or rich medium (YP; 2% bacto peptone, 1% yeast extract, 2% indicated carbon sources). Additionally, for fluorescence microscopy, low-fluorescence medium was used (standard minimal medium with 2% glucose, except YNB is prepared without riboflavin or folic acid to reduce background fluorescence) (Sheff and Thorn, “Optimized Cassettes for Fluorescent Protein Tagging in Saccharomyces cerevisiae,” Yeast 21:661-670 (2004), which is hereby incorporated by reference in its entirety). The yeast strains used in this study were DBY12000 and DBY12549. DBY12000 is a wild-type yeast strain (i.e., WT) with a genotype of MATa prototrophic HAP1^+ derivative of FY4. DBY12549 or yrKHK is the mutant of the wild-type yeast strain, which is sensitive to fructose and has a genotype of MATa HAP1^+ can1Δ::TDH3pr-yrKHK.\nThen, as an example, the platform was used to study recessive human metabolic diseases, specifically measuring sugar-phosphate toxicity. […]. The data obtained using the MVM^2 platform precisely pinpointed the binary ‘Yes/No’ sensitivity response of the yrKHK strain to fructose (Yes) and glucose (No), as shown in FIGS. 35A-C and FIGS. 36A-C, respectively.\nIn this case, the functionality and validity of the MVM^2 platform was used to test for these known “eukaryote cells/sugars” pairs. Consequently, sugars (fructose and glucose) were chosen as the small molecules to show the feasibility of testing small molecules on eukaryotic cells in the MVM^2 platform. A wild-type S. cerevisiae, DBY12000, yeast strain (namely, WT) and its genetically modified DBY12549 mutant (called yrKHK) were chosen.. […]"}, "[2]": {"test_system": "wild-type S. cerevisiae strain (DBY12000)", "experiment": "Sugar test in MVM2 platform, 10 h yeast culture", "assay_type": "cell-based, Saccharomyces cerevisiae", "conditions": "0.007-7%", "protocol": "Yeast culture medium, strains, and growth. Yeast cell growth and standard laboratory manipulations were performed as described (Guthrie and Fink, “Guide to Yeast Genetics and Molecular and Cellular Biology,” Methods in Enzymol. Part C 351 Gulf Professional Publishing (2002), which is hereby incorporated by reference in its entirety). All media used was either minimal medium (YNB; 0.67% yeast nitrogen base without amino acids plus 2% indicated carbon sources) or rich medium (YP; 2% bacto peptone, 1% yeast extract, 2% indicated carbon sources). Additionally, for fluorescence microscopy, low-fluorescence medium was used (standard minimal medium with 2% glucose, except YNB is prepared without riboflavin or folic acid to reduce background fluorescence) (Sheff and Thorn, “Optimized Cassettes for Fluorescent Protein Tagging in Saccharomyces cerevisiae,” Yeast 21:661-670 (2004), which is hereby incorporated by reference in its entirety). The yeast strains used in this study were DBY12000 and DBY12549. DBY12000 is a wild-type yeast strain (i.e., WT) with a genotype of MATa prototrophic HAP1^+ derivative of FY4. […]\nWild-type vs. Glucose (outcome: not sensitive): In FIGS. 37A-D and FIG. 38, the WT yeast strain exposed with glucose and fructose, respectively. The yeast growth was monitored for any “yeast/sugar” pair within 10 h culture at two time points (t=0 and 10 h). […]"}, "yrKHK strain": {"test_system": "yrKHK strain", "conditions": "reported elsewhere; cited from earlier work"}, "WT strain": {"test_system": "WT strain", "conditions": "reported elsewhere; cited from earlier work"}, "[3]": {"conditions": "Table 3, antifungal drugs and other molecules; cited from earlier work"}}, "data": [{"smiles": "O=C(CO)[C@@H](O)[C@H](O)[C@H](O)CO", "note": "[D-fructose]", "values": [{"measurement": "binary Yes/No sensitivity response", "setting": "[1]; 0.007-7 wt %", "result": "Yes"}, {"measurement": "critical sensitivity concentration", "setting": "[1]; 10 h", "result": 1.13, "unit": "wt %"}, {"measurement": "concentration range within which yeast growth is stopped", "setting": "[1]; microchambers R8-R12, 10 h", "result": "0.7-1.113 wt %"}, {"measurement": "outcome (sensitivity)", "setting": "[2]", "result": "not sensitive"}, {"measurement": "sensitivity/resistance", "setting": "yrKHK strain", "result": "sensitive"}, {"measurement": "sensitivity/resistance", "setting": "WT strain", "result": "resistant"}, {"measurement": "Molar volume", "setting": "[3]", "result": 113.3, "unit": "cm^3"}]}]}
